Test results: patent publication US11377442B2, “Small molecule agonists and antagonists of NR2F6 activity” (ZANDER THERAPEUTICS, INC., priority 2016, dated 2022)
Like-named read-outs stand apart in the source and are kept apart here.

Assays:
Assay type in all cases: cell-based
[1] = molecular target: T1, NR2F6 (Homo sapiens, UniProt P10588); experiment: NR2F6 agonist screening, Firefly signal cmpd/DMSO; conditions: for Activity, cmpd/DMSO: Table 31
T1 construct: expressed in transfected cells; also transient transfection
T1 sequence (P10588 1-404): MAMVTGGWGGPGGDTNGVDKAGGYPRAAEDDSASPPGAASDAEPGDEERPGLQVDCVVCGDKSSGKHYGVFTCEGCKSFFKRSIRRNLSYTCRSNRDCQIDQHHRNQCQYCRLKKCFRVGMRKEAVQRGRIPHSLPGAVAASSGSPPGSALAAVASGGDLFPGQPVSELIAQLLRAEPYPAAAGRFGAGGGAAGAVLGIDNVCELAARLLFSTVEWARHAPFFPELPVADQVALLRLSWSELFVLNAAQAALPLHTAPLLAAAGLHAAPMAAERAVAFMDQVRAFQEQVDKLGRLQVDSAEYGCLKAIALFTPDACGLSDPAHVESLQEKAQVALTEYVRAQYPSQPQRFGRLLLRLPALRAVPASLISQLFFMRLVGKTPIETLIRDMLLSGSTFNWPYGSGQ

[2] = tested on: Renilla; experiment: Renilla signal in NR2F6 agonist screening, cmpd/DMSO; conditions: Renilla, F4
[3] = tested on: HEK293 pGL4; experiment: Firefly_pGL signal, cmpd/DMSO (pGL4 control cells); conditions: Homo sapiens
[4] = molecular target: T2, NR2F6 LBD (Homo sapiens, UniProt P10588); experiment: NR2F6 LBD transient transfection; conditions: LBD
T2 construct: expressed in transfected cells
T2 sequence (P10588 165-393 limits assumed): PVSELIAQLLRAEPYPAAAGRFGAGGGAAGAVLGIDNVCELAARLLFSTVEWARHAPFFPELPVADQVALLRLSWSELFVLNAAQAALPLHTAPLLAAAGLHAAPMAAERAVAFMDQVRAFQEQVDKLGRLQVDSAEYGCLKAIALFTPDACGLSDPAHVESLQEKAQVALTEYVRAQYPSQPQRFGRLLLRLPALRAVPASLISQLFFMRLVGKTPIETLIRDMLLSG
How it was run: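 LBD-transfected cells treated at 40, 10, 2 and 0.5 μM (4 replicates); cytotoxicity measured in parallel, normalized to DMSO (0%) and zero signal (100%). Higher concentrations excluded where signal loss reflected toxicity.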

[5] = read-out: Renilla, F4, cmpd/DMSO (mean)
[6] = 1% FBS, read-out: Renilla, F4, 1% FBS, cmpd/DMSO (mean)
[7] = 10% FBS, read-out: Renilla, F4, 10% FBS, cmpd/DMSO (mean)
[8] = HEK293, 0.5 uM, pGL4, read-out: Firefly pGL4, cmpd/DMSO (mean)
[9] = HEK293, 2 uM, pGL4, read-out: Firefly pGL4, cmpd/DMSO (mean)
[10] = HEK293, 10 uM, pGL4, read-out: Firefly pGL4, cmpd/DMSO (mean)
[11] = HEK293, 40 uM, pGL4, read-out: Firefly pGL4, cmpd/DMSO (mean)
[12] = HEK293, pGL4, 1% FBS, 0.5 uM, read-out: Firefly, pGL4, 1% FBS, cmpd/DMSO (mean)
[13] = HEK293, pGL4, 1% FBS, 2 uM, read-out: Firefly, pGL4, 1% FBS, cmpd/DMSO (mean)
[14] = HEK293, pGL4, 1% FBS, 10 uM, read-out: Firefly, pGL4, 1% FBS, cmpd/DMSO (mean)
[15] = HEK293, pGL4, 1% FBS, 40 uM, read-out: Firefly, pGL4, 1% FBS, cmpd/DMSO (mean)
[16] = HEK293, pGL4, 10% FBS, 0.5 uM, read-out: Firefly, pGL4, 10% FBS, cmpd/DMSO (mean)
[17] = HEK293, pGL4, 10% FBS, 2 uM, read-out: Firefly, pGL4, 10% FBS, cmpd/DMSO (mean)
[18] = HEK293, pGL4, 10% FBS, 10 uM, read-out: Firefly, pGL4, 10% FBS, cmpd/DMSO (mean)
[19] = HEK293, pGL4, 10% FBS, 40 uM, read-out: Firefly, pGL4, 10% FBS, cmpd/DMSO (mean)

## CC(C)CN[C@H]1CS(=O)(=O)C[C@@H]1S(=O)(=O)c1ccc(Cl)cc1 [Compound D120]
[1]; 0.5 uM
  Firefly F4, cmpd/DMSO (mean): 1.3
[1]; 2 uM
  Firefly F4, cmpd/DMSO (mean): 1.5
[1]; 10 uM
  Firefly F4, cmpd/DMSO (mean): 5.1
[1]; 40 uM
  Firefly F4, cmpd/DMSO (mean): 2.2
[1]; 1% FBS, 10 uM
  F4, Firefly/Renilla for S/B(F4) > 3: 2.3
  Firefly, F4/pGL4 for S/B(F4) > 3: 1.7
  Firefly, F4, 1% FBS, cmpd/DMSO (mean): 4.7
[1]; 10% FBS, 10 uM
  F4, Firefly/Renilla for S/B(F4) > 3: 2.1
  Firefly, F4/pGL4 for S/B(F4) > 3: 1.8
  Firefly, F4, 10% FBS, cmpd/DMSO (mean): 3.6
[1]; 1% FBS, 0.5 uM
  Firefly, F4, 1% FBS, cmpd/DMSO (mean): 0.8
[1]; 1% FBS, 2 uM
  Firefly, F4, 1% FBS, cmpd/DMSO (mean): 1.2
[1]; 1% FBS, 40 uM
  Firefly, F4, 1% FBS, cmpd/DMSO (mean): 0.2
[1]; 10% FBS, 0.5 uM
  Firefly, F4, 10% FBS, cmpd/DMSO (mean): 1.0
[1]; 10% FBS, 2 uM
  Firefly, F4, 10% FBS, cmpd/DMSO (mean): 1.2
[1]; 10% FBS, 40 uM
  Firefly, F4, 10% FBS, cmpd/DMSO (mean): 1.7
[2]; [5]
  fold induction at 0.5 µM: 1
  fold induction at 2 µM: 1.2
  fold induction at 10 µM: 1.7
  fold induction at 40 µM: 1.6
[2]; [6]
  fold induction at 0.5 µM: 1
  fold induction at 2 µM: 1.3
  fold induction at 10 µM: 2.1
  fold induction at 40 µM: 0.6
[2]; [7]
  fold induction at 0.5 µM: 1
  fold induction at 2 µM: 1.1
  fold induction at 10 µM: 1.7
  fold induction at 40 µM: 1.5
[3]; [8]
  fold induction at 0.5 µM: 1.4
[3]; [9]
  fold induction at 2 µM: 1.5
[3]; [10]
  fold induction at 10 µM: 3.7
[3]; [11]
  fold induction at 40 µM: 0.8
[3]; [12]
  fold induction at 0.5 µM: 1.5
[3]; [13]
  fold induction at 2 µM: 1.5
[3]; [14]
  fold induction at 10 µM: 2.8
[3]; [15]
  fold induction at 40 µM: 0.9
[3]; [16]
  fold induction at 0.5 µM: 1.1
[3]; [17]
  fold induction at 2 µM: 1.7
[3]; [18]
  fold induction at 10 µM: 2
[3]; [19]
  fold induction at 40 µM: 0.7
[4]; 0.5 uM
  Firefly LBD, cmpd/DMSO (mean): 1.1
[4]; 2 uM
  Firefly LBD, cmpd/DMSO (mean): 1.7
[4]; 10 uM
  Firefly LBD, cmpd/DMSO (mean): 4.1
[4]; 40 uM
  Firefly LBD, cmpd/DMSO (mean): 0.8

## O=S1(=O)C[C@H](N2CCCC2)[C@@H](S(=O)(=O)c2ccc(Cl)cc2)C1 [Compound D122]
[1]; 0.5 uM
  Firefly F4, cmpd/DMSO (mean): 1.6
[1]; 2 uM
  Firefly F4, cmpd/DMSO (mean): 3.3
[1]; 10 uM
  Firefly F4, cmpd/DMSO (mean): 6.8
[1]; 40 uM
  Firefly F4, cmpd/DMSO (mean): 0.7
[1]; 1% FBS, 2 uM
  F4, Firefly/Renilla for S/B(F4) > 3: 2.3
  Firefly, F4/pGL4 for S/B(F4) > 3: 1.3
  Firefly, F4, 1% FBS, cmpd/DMSO (mean): 3.2
[1]; 10% FBS, 10 uM
  F4, Firefly/Renilla for S/B(F4) > 3: 3.9
  Firefly, F4/pGL4 for S/B(F4) > 3: 3.1
  Firefly, F4, 10% FBS, cmpd/DMSO (mean): 11
[1]; 1% FBS, 0.5 uM
  Firefly, F4, 1% FBS, cmpd/DMSO (mean): 1.4
[1]; 1% FBS, 10 uM
  Firefly, F4, 1% FBS, cmpd/DMSO (mean): 2.8
[1]; 1% FBS, 40 uM
  Firefly, F4, 1% FBS, cmpd/DMSO (mean): 0.3
[1]; 10% FBS, 0.5 uM
  Firefly, F4, 10% FBS, cmpd/DMSO (mean): 1.5
[1]; 10% FBS, 2 uM
  Firefly, F4, 10% FBS, cmpd/DMSO (mean): 1.8
[1]; 10% FBS, 40 uM
  Firefly, F4, 10% FBS, cmpd/DMSO (mean): 0.5
[1]
  Activity, cmpd/DMSO: 6.6
[2]; [5]
  fold induction at 0.5 µM: 1.1
  fold induction at 2 µM: 1.3
  fold induction at 10 µM: 2.2
  fold induction at 40 µM: 0.2
[2]; [6]
  fold induction at 0.5 µM: 1.2
  fold induction at 2 µM: 1.4
  fold induction at 10 µM: 2.2
[2]; [7]
  fold induction at 0.5 µM: 1
  fold induction at 2 µM: 1
  fold induction at 10 µM: 2.9
[3]; [8]
  fold induction at 0.5 µM: 1.3
[3]; [9]
  fold induction at 2 µM: 2.4
[3]; [10]
  fold induction at 10 µM: 2.3
[3]; [11]
  fold induction at 40 µM: 0.6
[3]; [12]
  fold induction at 0.5 µM: 1.1
[3]; [13]
  fold induction at 2 µM: 2.5
[3]; [14]
  fold induction at 10 µM: 2.6
[3]; [15]
  fold induction at 40 µM: 0.7
[3]; [16]
  fold induction at 0.5 µM: 0.9
[3]; [17]
  fold induction at 2 µM: 2.2
[3]; [18]
  fold induction at 10 µM: 3.7
[3]; [19]
  fold induction at 40 µM: 0.7
[4]; 0.5 uM
  Firefly LBD, cmpd/DMSO (mean): 1.2
[4]; 2 uM
  Firefly LBD, cmpd/DMSO (mean): 2.5
[4]; 10 uM
  Firefly LBD, cmpd/DMSO (mean): 3.1
[4]; 40 uM
  Firefly LBD, cmpd/DMSO (mean): 0.6

## O=S1(=O)C[C@H](NC2CCCCC2)[C@@H](S(=O)(=O)c2ccc(Cl)cc2)C1 [Compound D124]
[1]; 0.5 uM
  Firefly F4, cmpd/DMSO (mean): 1.6
[1]; 2 uM
  Firefly F4, cmpd/DMSO (mean): 1.3
[1]; 10 uM
  Firefly F4, cmpd/DMSO (mean): 4.6
[1]; 40 uM
  Firefly F4, cmpd/DMSO (mean): 2.1
[1]; 1% FBS, 10 uM
  F4, Firefly/Renilla for S/B(F4) > 3: 2.0
  Firefly, F4/pGL4 for S/B(F4) > 3: 1.3
  Firefly, F4, 1% FBS, cmpd/DMSO (mean): 3.1
[1]; 10% FBS, 40 uM
  F4, Firefly/Renilla for S/B(F4) > 3: 1.7
  Firefly, F4/pGL4 for S/B(F4) > 3: 1.4
  Firefly, F4, 10% FBS, cmpd/DMSO (mean): 4.5
[1]; 1% FBS, 0.5 uM
  Firefly, F4, 1% FBS, cmpd/DMSO (mean): 0.9
[1]; 1% FBS, 2 uM
  Firefly, F4, 1% FBS, cmpd/DMSO (mean): 1.9
[1]; 1% FBS, 40 uM
  Firefly, F4, 1% FBS, cmpd/DMSO (mean): 0.4
[1]; 10% FBS, 0.5 uM
  Firefly, F4, 10% FBS, cmpd/DMSO (mean): 1.2
[1]; 10% FBS, 2 uM
  Firefly, F4, 10% FBS, cmpd/DMSO (mean): 1.0
[1]; 10% FBS, 10 uM
  Firefly, F4, 10% FBS, cmpd/DMSO (mean): 2.3
[2]; [5]
  fold induction at 0.5 µM: 1.1
  fold induction at 2 µM: 1.2
  fold induction at 10 µM: 1.5
  fold induction at 40 µM: 1.8
[2]; [6]
  fold induction at 0.5 µM: 1.1
  fold induction at 2 µM: 1.2
  fold induction at 10 µM: 1.5
  fold induction at 40 µM: 1.6
[2]; [7]
  fold induction at 0.5 µM: 1
  fold induction at 2 µM: 1
  fold induction at 10 µM: 1.3
  fold induction at 40 µM: 2.6
[3]; [8]
  fold induction at 0.5 µM: 1.4
[3]; [9]
  fold induction at 2 µM: 1.5
[3]; [10]
  fold induction at 10 µM: 3.1
[3]; [11]
  fold induction at 40 µM: 0.7
[3]; [12]
  fold induction at 0.5 µM: 1.1
[3]; [13]
  fold induction at 2 µM: 1.6
[3]; [14]
  fold induction at 10 µM: 2.4
[3]; [15]
  fold induction at 40 µM: 0.8
[3]; [16]
  fold induction at 0.5 µM: 1.2
[3]; [17]
  fold induction at 2 µM: 1.4
[3]; [18]
  fold induction at 10 µM: 2.2
[3]; [19]
  fold induction at 40 µM: 3.2
[4]; 0.5 uM
  Firefly LBD, cmpd/DMSO (mean): 1.4
[4]; 2 uM
  Firefly LBD, cmpd/DMSO (mean): 1.6
[4]; 10 uM
  Firefly LBD, cmpd/DMSO (mean): 3.6
[4]; 40 uM
  Firefly LBD, cmpd/DMSO (mean): 0.5

## CC1CCN([C@H]2CS(=O)(=O)C[C@@H]2S(=O)(=O)c2ccc(Cl)cc2)CC1 [Compound D125]
[1]; 0.5 uM
  Firefly F4, cmpd/DMSO (mean): 1.3
[1]; 2 uM
  Firefly F4, cmpd/DMSO (mean): 2.3
[1]; 10 uM
  Firefly F4, cmpd/DMSO (mean): 5.6
[1]; 40 uM
  Firefly F4, cmpd/DMSO (mean): 0.9
[1]
  Activity, cmpd/DMSO: 7.3
[2]; [5]
  fold induction at 0.5 µM: 1
  fold induction at 2 µM: 1.3
  fold induction at 10 µM: 1.8
  fold induction at 40 µM: 1.3
[3]; [8]
  fold induction at 0.5 µM: 1.4
[3]; [9]
  fold induction at 2 µM: 1.9
[3]; [10]
  fold induction at 10 µM: 4.2
[3]; [11]
  fold induction at 40 µM: 0.6
[4]; 0.5 uM
  Firefly LBD, cmpd/DMSO (mean): 1.0
[4]; 2 uM
  Firefly LBD, cmpd/DMSO (mean): 1.6
[4]; 10 uM
  Firefly LBD, cmpd/DMSO (mean): 4.6
[4]; 40 uM
  Firefly LBD, cmpd/DMSO (mean): 0.4
